Laboratory results reported in ChEMBL document CHEMBL1201862, “PubChem BioAssay data set” (2004).
Activity calls are given as the source filed them.

Columns and labels:
[1] = molecular target: T1, ATP-dependent translocase ABCB1 (Homo sapiens, UniProt P08183); test: P-gp JC-1 efflux blockade concentration-response – Jurkat-DNR cells, flow cytometry, set 2, dose response (AID 504569); format: functional; settings: read-out: EC50_MICROM_;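 note: potency of pump inhibitors that raise cellular JC-1 green fluorescence up to the nicardipine level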
T1 sequence (P08183 whole entry): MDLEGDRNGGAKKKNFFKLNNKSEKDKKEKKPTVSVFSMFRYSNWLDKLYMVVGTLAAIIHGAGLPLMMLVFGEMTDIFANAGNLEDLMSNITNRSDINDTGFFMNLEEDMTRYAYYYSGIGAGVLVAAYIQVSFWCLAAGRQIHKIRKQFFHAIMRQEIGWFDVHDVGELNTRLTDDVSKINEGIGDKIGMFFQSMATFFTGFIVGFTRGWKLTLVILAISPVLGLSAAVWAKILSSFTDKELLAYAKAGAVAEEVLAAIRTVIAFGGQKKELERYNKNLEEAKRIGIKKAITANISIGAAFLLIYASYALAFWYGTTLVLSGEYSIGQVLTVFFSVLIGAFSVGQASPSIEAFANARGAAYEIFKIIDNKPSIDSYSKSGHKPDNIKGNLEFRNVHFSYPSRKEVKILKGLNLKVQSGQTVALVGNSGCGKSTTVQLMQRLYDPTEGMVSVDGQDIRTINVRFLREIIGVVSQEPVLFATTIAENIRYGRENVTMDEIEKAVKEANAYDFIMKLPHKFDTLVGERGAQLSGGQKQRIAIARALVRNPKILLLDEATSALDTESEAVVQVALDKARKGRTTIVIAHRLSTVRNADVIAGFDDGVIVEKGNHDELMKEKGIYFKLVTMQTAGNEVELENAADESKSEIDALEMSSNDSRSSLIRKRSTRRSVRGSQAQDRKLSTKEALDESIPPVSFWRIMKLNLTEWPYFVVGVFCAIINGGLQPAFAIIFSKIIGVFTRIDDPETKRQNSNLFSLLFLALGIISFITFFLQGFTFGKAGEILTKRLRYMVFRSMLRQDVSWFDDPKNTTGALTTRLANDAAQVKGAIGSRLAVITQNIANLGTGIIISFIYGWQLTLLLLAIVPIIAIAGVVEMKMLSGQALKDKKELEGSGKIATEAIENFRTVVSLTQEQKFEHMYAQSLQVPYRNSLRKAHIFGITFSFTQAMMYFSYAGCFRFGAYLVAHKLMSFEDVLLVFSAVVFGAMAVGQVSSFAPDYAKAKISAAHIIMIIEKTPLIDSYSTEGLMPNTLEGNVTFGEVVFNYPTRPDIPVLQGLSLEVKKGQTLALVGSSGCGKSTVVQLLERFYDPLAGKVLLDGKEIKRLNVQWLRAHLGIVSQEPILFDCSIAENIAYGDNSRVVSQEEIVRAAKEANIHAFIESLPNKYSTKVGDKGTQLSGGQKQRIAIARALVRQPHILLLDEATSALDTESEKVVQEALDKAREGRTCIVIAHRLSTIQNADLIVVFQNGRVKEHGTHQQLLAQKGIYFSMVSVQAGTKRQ

[2] = molecular target: T1, ATP-dependent translocase ABCB1; test: inhibition of BCRP-mediated JC-1 efflux – Ig-MXP3 cells, flow cytometry, set 2, dose response (AID 504566); format: functional; settings: read-out: EC50_MICROM_;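 note: flow cytometry median green fluorescence of retained JC-1 dye; potency of efflux pump inhibition measured as rising substrate retention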
Paired box protein Pax-8 = Paired box protein Pax-8 (Homo sapiens, UniProt Q06710); test: PAX8 transcriptional activity inhibition in RMG-I – RMG-I cells, luciferase, cherry-pick, dose response (AID 687027); format: functional, cell-based;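 note: luciferase reporter driven by Pax8 target thyroperoxidase promoter measured by SteadyGlo luminescence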
Sequence of Paired box protein Pax-8 (Q06710 whole entry): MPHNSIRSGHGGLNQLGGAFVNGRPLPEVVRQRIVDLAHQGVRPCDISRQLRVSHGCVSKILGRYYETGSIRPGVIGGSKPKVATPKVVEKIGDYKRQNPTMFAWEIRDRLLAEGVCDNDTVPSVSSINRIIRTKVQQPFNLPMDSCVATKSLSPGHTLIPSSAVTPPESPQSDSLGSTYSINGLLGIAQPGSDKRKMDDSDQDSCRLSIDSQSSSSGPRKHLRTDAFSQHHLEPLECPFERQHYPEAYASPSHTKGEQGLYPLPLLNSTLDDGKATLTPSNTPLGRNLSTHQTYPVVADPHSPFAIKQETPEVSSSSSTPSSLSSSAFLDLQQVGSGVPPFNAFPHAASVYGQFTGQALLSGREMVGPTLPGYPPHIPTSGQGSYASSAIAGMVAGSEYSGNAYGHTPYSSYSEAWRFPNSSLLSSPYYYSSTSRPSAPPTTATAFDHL

[3] = OVCAR-3 cell viability loss – plate reader, dry powder samples, PAX8 inhibitor project, dose response (AID 743044); format: functional, cell-based
[4] = molecular target: Potassium channel subfamily K member 9 (Homo sapiens, UniProt Q9NPC2); test: KCNK9 flux blockade, concentration-response – cell-based, FluxOR thallium flux, selectivity assay for TASK1 inhibitor project, SAR follow-up (AID 652211); format: functional;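 note: potency is for inhibitors of the channel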
Sequence of Potassium channel subfamily K member 9 (Q9NPC2 whole entry, the tested form may be a part): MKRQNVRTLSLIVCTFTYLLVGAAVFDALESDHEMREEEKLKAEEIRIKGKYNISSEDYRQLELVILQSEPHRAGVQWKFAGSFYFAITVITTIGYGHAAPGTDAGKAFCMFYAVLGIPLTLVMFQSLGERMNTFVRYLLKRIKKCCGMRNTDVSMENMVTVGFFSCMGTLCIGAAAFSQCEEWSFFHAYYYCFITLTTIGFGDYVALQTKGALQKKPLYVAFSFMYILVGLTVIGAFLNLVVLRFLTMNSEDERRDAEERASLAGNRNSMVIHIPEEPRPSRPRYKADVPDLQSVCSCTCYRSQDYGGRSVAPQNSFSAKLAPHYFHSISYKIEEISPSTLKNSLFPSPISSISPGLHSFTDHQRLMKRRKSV

[5] = molecular target: T2, Oxysterols receptor LXR-beta (Homo sapiens, UniProt P55055); format: functional, cell-based;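 note: Cell-based luminescence dose-response assay of agonist activity at LXR, run as a confirmatory counterscreen to a daf-12 agonist screen; HEK293 cells with Gal4-LXR fusion and GAL4-driven luciferase reporter; agonist potency from rising luciferase signal of a Gal4-LXR reporter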
T2 sequence (P55055 whole entry): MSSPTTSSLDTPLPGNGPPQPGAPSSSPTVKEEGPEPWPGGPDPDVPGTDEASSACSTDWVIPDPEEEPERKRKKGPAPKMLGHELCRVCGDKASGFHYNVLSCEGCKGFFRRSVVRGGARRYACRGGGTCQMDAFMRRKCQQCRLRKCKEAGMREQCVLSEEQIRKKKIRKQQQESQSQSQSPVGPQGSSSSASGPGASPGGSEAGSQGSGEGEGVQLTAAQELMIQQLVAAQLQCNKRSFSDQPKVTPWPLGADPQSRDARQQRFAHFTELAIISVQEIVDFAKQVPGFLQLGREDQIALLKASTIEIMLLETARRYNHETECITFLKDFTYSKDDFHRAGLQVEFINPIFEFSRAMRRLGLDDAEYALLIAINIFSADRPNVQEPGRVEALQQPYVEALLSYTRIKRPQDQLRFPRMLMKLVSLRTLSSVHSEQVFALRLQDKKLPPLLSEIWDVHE

[6] = blockade of melanocortin 4 receptor signaling – cell-based, plate reader, cherry pick, counter-screen for LGR2 antagonist project, dose response (AID 743444); format: functional;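 note: transfected HEK 293 cells stimulated with alpha-MSH peptide; potency of inhibitors of the alpha-MSH evoked signal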
[7] = A549 cell cytotoxicity, dose response, cytotoxicity control, plate reader, cherry-pick, antagonist series (AID 743412); format: functional, cell-based
[8] = toxicity toward HepG2 liver cells – cell-based, plate reader, cherry-pick, antagonist series, cytotoxicity control, dose response (AID 743416); format: functional
HT-1080 = test: HT1080 cell viability loss – fluorescence readout (AID 620); format: functional, cell-based; settings: Homo sapiens
Protein skinhead-1 = molecular target: T3, Protein skinhead-1 (Caenorhabditis elegans, UniProt P34707); format: functional
T3 sequence (P34707 whole entry): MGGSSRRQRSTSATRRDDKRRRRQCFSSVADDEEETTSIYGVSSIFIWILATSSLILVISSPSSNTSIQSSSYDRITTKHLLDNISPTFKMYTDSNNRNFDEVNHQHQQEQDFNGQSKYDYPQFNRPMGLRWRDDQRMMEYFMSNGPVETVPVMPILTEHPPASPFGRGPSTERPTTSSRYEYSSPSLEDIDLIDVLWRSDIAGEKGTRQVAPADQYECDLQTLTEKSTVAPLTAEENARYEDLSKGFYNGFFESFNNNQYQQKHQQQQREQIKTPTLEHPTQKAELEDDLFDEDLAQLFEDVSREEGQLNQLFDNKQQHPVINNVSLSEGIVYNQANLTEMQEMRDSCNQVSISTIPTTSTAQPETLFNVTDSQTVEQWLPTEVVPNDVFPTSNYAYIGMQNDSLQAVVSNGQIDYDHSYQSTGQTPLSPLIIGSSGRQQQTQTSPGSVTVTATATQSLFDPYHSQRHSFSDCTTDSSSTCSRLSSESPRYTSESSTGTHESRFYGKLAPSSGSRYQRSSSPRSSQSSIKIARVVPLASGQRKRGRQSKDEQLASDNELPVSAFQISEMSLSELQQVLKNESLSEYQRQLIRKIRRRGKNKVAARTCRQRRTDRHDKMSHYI

HEK293 = test: EBV LMP1 TES2 canonical NF-kB signalling blockers – cell-based, HEK293, luciferase, cherry-pick, dose response (AID 588343); format: functional; settings: Homo sapiens
[9] = molecular target: Luciferin 4-monooxygenase (Photinus pyralis, UniProt P08659); test: Counter Screen for Luciferase-based Assay Positives. [Related pubchem assays: 620, 618, 411 ]
Sequence of Luciferin 4-monooxygenase (P08659 whole entry): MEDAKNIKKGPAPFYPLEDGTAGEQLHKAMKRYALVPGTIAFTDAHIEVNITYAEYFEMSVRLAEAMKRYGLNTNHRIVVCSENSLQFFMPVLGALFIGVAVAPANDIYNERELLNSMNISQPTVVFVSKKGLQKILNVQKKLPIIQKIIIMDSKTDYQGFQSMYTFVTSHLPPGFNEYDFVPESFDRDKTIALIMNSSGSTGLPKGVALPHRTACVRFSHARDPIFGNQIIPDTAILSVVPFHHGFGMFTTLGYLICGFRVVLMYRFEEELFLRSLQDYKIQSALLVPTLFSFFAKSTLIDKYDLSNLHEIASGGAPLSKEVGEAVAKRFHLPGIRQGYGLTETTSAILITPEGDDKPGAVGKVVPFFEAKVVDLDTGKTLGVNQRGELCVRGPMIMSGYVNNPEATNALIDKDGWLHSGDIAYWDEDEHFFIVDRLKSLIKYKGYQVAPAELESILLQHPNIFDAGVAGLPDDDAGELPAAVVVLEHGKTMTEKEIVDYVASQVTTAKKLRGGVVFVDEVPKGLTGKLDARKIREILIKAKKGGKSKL

[10] = blockers of bursicon-stimulated LGR2 cAMP reporter – cell-based, HEK293, CRE-luciferase reporter, cherry pick, set 2, dose response (AID 743343); format: functional;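 note: transfected cells were stimulated with diluted bursicon conditioned medium after compound addition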

COc1ccc(-c2cc3nc(C)c(C)c(N4CCN(C(=O)c5ccsc5)CC4)n3n2)cc1
EC50 [1]: 3.83 µM (active)
EC50 [2]: 1.79 µM (active)

O=C(c1ccsc1)N1CCN(c2cc(-c3ccccc3)nc3cc(-c4cccc(Cl)c4)nn23)CC1
EC50 [1]: 3.4 µM (active)
EC50 [2]: 1.63 µM (active)

C[C@H](CO)N1C[C@H](C)[C@@H](CN(C)Cc2ccc(C(F)(F)F)cc2)OCCCC[C@H](C)Oc2ccc(NC(=O)Cc3ccccc3)cc2C1=O
AC50 (Paired box protein Pax-8): 9.66 µM (active)
AC50 [3]: 30.6 µM (active)

O=C(Nc1cccc(NC(=O)c2ccccc2C(F)(F)F)c1)c1ccccc1
IC50 [4]: 7.21 µM (active)

COc1ccccc1C(=O)Nc1cccc(NC(=O)c2ccccc2OC(F)(F)F)c1
IC50 [4]: 1.17 µM (active)

Brc1ccc(-c2nc(-c3ccccn3)no2)o1
EC50 [5]: > 67.5 µM (inactive)
AC50 [6]: 3.84 µM (active)
AC50 [7]: > 52 µM (inactive)
AC50 [8]: > 52 µM (inactive)
EC50 (cells): > 67.5 µM (inactive)
EC50 (HT-1080): > 50 µM (not active)
IC50 (Protein skinhead-1): 72.1 µM (inactive)
AC50 (HEK293): 2.33 µM (active)
EC50 [9]: 2.58 µM (active)
AC50 [10]: 2.92 µM (active)
